This is an account of results in paper PMC10326142 (Cancer Chemotherapy and Pharmacology, 2023).

“And” between values parts separate entries of the source, which are not always exact repeats. Equal entries are not always repeated. Where two headings read alike, the source gives them in different places.

Series [1] concerns P-glycoprotein (P-gp). Also on record: method as in PMID 34664792. The settings on record: digoxin = P-gp substrate; cited from earlier work.
A short description of series [2]: Plasma pharmacokinetics of neratinib and trametinib co-administered, cycle 1 day 15 (LC/MS, noncompartmental). The series is classed as in vivo, human. The settings on record: for Tmax / Ctau or C24 (trough concentration) / Half-life: plasma; for Ctau or C24 (trough concentration): mean (range) in Table 4; for Oral CLss (oral clearance at steady state): mean (range) in Table 4, mean ± spread in text.

The subject of series [3] is patients with solid tumors. Also on record: method as in Wong et al 27. The settings on record: monotherapy 180mg, N=6; cell as count (percent), ref Wong et al 27; cited from earlier work.
For series [4] the following is noted: cited from earlier work.
The subject of series [5] is patients. The note with it: cited from earlier work.
[6] abbreviates: co-administered at dose level minus 1 (160 mg neratinib daily with 1 mg trametinib 5 days on and 2 days off), cycle 1 day 15, 8 patients.
[7] abbreviates: single agent trametinib 2 mg, 13 patients, mean (range), ref Infante et al. 32.
The mark [8] stands for this setting: single agent trametinib 2.5 mg, 16 patients, mean (range), ref Infante et al. 32.
Where [9] appears, read: single agent trametinib 3 mg, 16 patients, mean (range), ref Infante et al. 32.
[10] abbreviates: monotherapy 1mg, N=2, ref Infante et al 32.
Where [11] appears, read: monotherapy 2mg, N=70, cell as count (percent), ref Infante et al 32.

With `CCOc1cc2ncc(C#N)c(Nc3ccc(OCc4ccccn4)c(Cl)c3)c2cc1NC(=O)/C=C/CN(C)C` [neratinib], in series [1], the “increase of digoxin AUC” value is recorded as 32% and the “increase of digoxin plasma concentrations (Cmax)” value was 54%. Further, the “changes in neratinib PKs compared to existing single agent PK data (in words)” value in series [2] (PK cohort, co-administered with trametinib) is recorded as “no observed changes”. Moreover, in series [2] (co-administered at dose level minus 1 (160 mg neratinib daily with 1 mg trametinib 5 days on and 2 days off), cycle 1 day 15, 8 patients, mean (range)), the Tmax is on record as 5.8 (3–8) h. Besides, in series [2] (setting [6]), the “Ctau or C24 (trough concentration)” value is 43.99 (3.4–93) ng/mL and the “Oral CLss (oral clearance at steady state)” value (shortened to “Oral CLss”) turned out to be 76.7 ± 16.9 L/h. Besides, the “Oral CLss” value in series [2] (co-administered at dose level minus 1 (160 mg neratinib daily with 1 mg trametinib 5 days on and 2 days off), cycle 1 day 15, 8 patients, listed as Neratinib) was 76.7 (56.5–93.5) L/h. Also, the “AR (accumulation ratio)” value in series [2] (co-administered at dose level minus 1 (160 mg neratinib daily with 1 mg trametinib 5 days on and 2 days off), day 15, 8 patients, mean (range)) is 1.67 (1.19–2.16). For the same molecule, the Half-life in series [2] (human, oral) is 18 h. The Tmax in series [2] (human, oral, read-out: Tmax) is roughly 6 h. In series [3], the “Grade > 3 TRAE: Diarrhea” value was 1 (17), the “Grade > 3 TRAE: Fatigue” value is 1 (17), the “Grade > 3 TRAE: Nausea” value is 0 and the “Grade > 3 TRAE: Rash” value is recorded as 0. Besides, in series [3], the “Grade > 3 TRAE: Vomiting” value is reported as 0, the “TRAE of all grades: Anorexia” value is on record as 1 (17), the “TRAE of all grades: Diarrhea” value is listed as 6 (100) and the “TRAE of all grades: Fatigue” value is reported as 4 (67). In series [3], the “TRAE of all grades: Nausea” value is 3 (50), the “TRAE of all grades: Rash” value is reported as 1 (17) and the “TRAE of all grades: Vomiting” value is on record as 2 (33).
As to `CC(=O)Nc1cccc(-n2c(=O)n(C3CC3)c(=O)c3c(Nc4ccc(I)cc4F)n(C)c(=O)c(C)c32)c1` [trametinib], in series [4] (published single agent data), the oral clearance is reported as 3.81 L/h. For the same molecule, in series [4] (setting [7]), the Cmax is given as 22.2 (14–32·9) ng/mL, the “Ctau or C24” value is recorded as 12.1 (8.26–16.9) ng/mL and the Half-life is listed as 57.6 (4·01–210) h. Moreover, in series [4] (setting [8]), the AUC0-24 is recorded as 410 (215–865) ng*h/mL, the “Ctau or C24” value is on record as 15.1 (6.86–40.5) ng/mL and the Half-life is given as 90.2 (58.4–183) h. Moreover, in series [4] (setting [9]), the AUC0-24 is recorded as 540 (261–968) ng*h/mL, the Cmax was 33.4 (15.6–60.9) ng/mL, the “Ctau or C24” value is recorded as 17.9 (7.77–35.5) ng/mL and the Half-life is recorded as 86.1 (15.1–291) h. For the same molecule, the Tmax in series [4] (setting [9]) was 2.05 (0.5–10.0) h. For the same molecule, in series [5] (setting [10]), the “Grade > 3 TRAE: Fatigue” value is 0 and the “Grade > 3 TRAE: Nausea” value is listed as 0. Also, in series [5] (setting [11]), the “TRAE of all grades: Mucositis” value is 3 (4), the “TRAE of all grades: Nausea” value is recorded as 18 (26) and the “TRAE of all grades: Vomiting” value was 9 (13). In series [2] (setting [6]), the “Ctau or C24 (trough concentration)” value is on record as 27.8 (8.5–42.2) ng/mL; the “Oral CLss” value is 1.55 ± 0.63 L/h and 1.55 L/h. The “Oral CLss” value in series [2] (co-administered at dose level minus 1 (160 mg neratinib daily with 1 mg trametinib 5 days on and 2 days off), cycle 1 day 15, 8 patients, listed as Trametinib) is 1.55 (0.95–2.4) L/h. In addition, the Half-life in series [2] (human, oral) is 52 h. In series [2] (human, oral, read-out: Tmax), the Tmax was found to be 5.6 h. In addition, the “trametinib clearance when co-administered with neratinib (in words)” value in series [2] (vs published single agent data) is “significantly reduced”.
